Holding throughout (test): In vitro activity, dilution method in a liquid medium (MIC)
Type in all cases: cell-based

Assay [1] deals with Enterobacter cloacae 1 321 E. Conditions: 1321E, 24 H. As to the method: (§1) In vitro activity, dilution method in a liquid medium.
(§2) A series of tubes were prepared in which an equal quantity of sterile nutritive medium was distributed. Increasing quantities of the product under test were distributed into each tube and then each tube was seeded with a bacterial strain. After incubation for 24 or 48 hours in an incubator at 37° C., the inhibition of the growth was estimated by transillumination, which enabled the minimal inhibiting concentrations (M.I.C.), expressed in micrograms/ml to be determined.

The next assay has as its system Escherichia Coli 1507 E. Conditions: COLI1507E, 24 H. The method, then:
as §1, §2

In the next assay the test system is Escherichia Coli DC 0. Conditions: COLIDC0, 24 H. The method, then: as §1, §2
For the next assay, the system named is Escherichia Coli DC 2. The settings on record: COLIDC2, 24 H. The method, then:
as §1, §2

Another assay relates to Escherichia Coli O 75. Conditions: COLIO75, 24 H. The method, then:
as §1, §2

The next assay relates to Escherichia Coli T E M. Conditions: 24 H. As to the method: as §1, §2
A further assay concerns Escherichia Coli UC 1894. Conditions: UC1894, 24 H. As to the method: as §1, §2
Assay [2] concerns Kiebsiella aerogenes 1 522 E. The settings on record: 24 H. The method, then: as §1, §2
Assay [3] deals with Kiebsiella pneumoniae Exp. 52 145. Conditions: 24 H. As to the method:
as §1, §2

For assay [4], the system named is Proteus mirabilis (indol-) A 235. The settings on record: 24 H. As to the method: as §1, §2
Assay [5] has as its system Proteus vulgaris (indol) A 232. Conditions: 24 H. The method, then:
as §1, §2

The next assay deals with Providencia Du 48. Conditions: DU48, 24 H. The method, then:
as §1, §2

Assay [6] has as its system Pseudomonas aeruginosa 1771 m. The settings on record: 24 H. As to the method:
as §1, §2

Assay [7] concerns Saimonella typhimurium MZ 11. Conditions: 24 H. The method, then:
as §1, §2

The next assay deals with Serratia RG 2 532. The settings on record: RG2532, 24 H. As to the method: as §1, §2
Assay [8] deals with Staphylococcus aureus 285. Conditions: 24 H. The method, then:
as §1, §2

Assay [9] relates to Staphylococcus aureus Exp. n° 54 146. The settings on record: 24 H. The method, then:
as §1, §2

Assay [10] concerns Streptococcus pyogenes 77 A. The settings on record: 24 H. As to the method: as §1, §2
Assay [11] concerns Streptococcus pyogenes A 561. The settings on record: A561, 24 H. As to the method:
as §1, §2

Molecules are shown by their SMILES. Counter-ions that a name gives are not always drawn.

The record followed here is US5075298A, “Cephalosporins” (Roussel Uclaf, priority 1987, dated 1991).

A word on the MIC: it is the least concentration at which growth counts as inhibited. The low end stands for inhibition by little substance, the high end for a need for much substance. Turning to `CO/N=C(\C(=O)N[C@@H]1C(=O)N2C(C(=O)O)=C(/C=C/C[n+]3cccc4ccsc43)CS[C@H]12)c1csc(N)n1` [ex. 1], the MIC in assay [1] worked out at 0.04 µg/mL; in the assay with Escherichia Coli 1507 E, 0.01 µg/mL; in the assay on Escherichia Coli DC 0 it was 0.04 µg/mL; in the assay on Escherichia Coli DC 2, 0.01 µg/mL; in the assay with Escherichia Coli O 75 it was 0.02 µg/mL; in the assay with Escherichia Coli T E M it was 0.04 µg/mL. For the same molecule, the MIC against Escherichia Coli UC 1894 was at most 0.01 µg/mL; in [2], 0.15 µg/mL; in [3], 0.08 µg/mL; in assay [4], 0.04 µg/mL; in assay [5], 0.3 µg/mL; against Providencia Du 48 it was 0.3 µg/mL. Further, the MIC in assay [6] is 0.6 µg/mL; in assay [7], 0.04 µg/mL; in the assay on Serratia RG 2 532 it was 0.15 µg/mL; in [8], 0.15 µg/mL; in [9], 0.3 µg/mL; in assay [10], at most 0.01 µg/mL. Moreover, the MIC in [11] was at most 0.01 µg/mL.

`Nc1nc(/C(=N/OC(F)F)C(=O)N[C@@H]2C(=O)N3C(C(=O)[O-])=C(/C=C/C[n+]4cccc5ccsc54)CS[C@H]23)cs1` [ex. 2, (6R,7R)-7-[[(2-amino-4-thiazolyl) [(Z)]-[(difluoromethoxy)imino]]acetamido]-8-oxo-3 [(E) 3-[7-[thieno[2,3-b]pyridino]-1-propenyl]-5-thia-1-azabicyclo[4,2,0]oct-2-en-2-carboxylate (internal salt)]: the MIC in assay [1] came out at 0.3 µg/mL; with Escherichia Coli 1507 E, 0.15 µg/mL; in the assay with Escherichia Coli DC 0, 2.5 µg/mL; in the assay on Escherichia Coli DC 2 it was 0.6 µg/mL; in the assay with Escherichia Coli O 75, 1.2 µg/mL; against Escherichia Coli T E M, 0.6 µg/mL. In addition, the MIC stood at 0.04 µg/mL against Escherichia Coli UC 1894; 0.6 µg/mL in [2]; 0.6 µg/mL in [3]; 0.08 µg/mL in assay [4]; 0.3 µg/mL in assay [5]; 2.5 µg/mL against Providencia Du 48. Moreover, the MIC in [6] is 1.2 µg/mL; in assay [7], 0.3 µg/mL; with Serratia RG 2 532, 10 µg/mL; in assay [8], 5 µg/mL; in assay [9], 5 µg/mL; in [10], at most 0.01 µg/mL. In assay [11], this molecule registered an MIC of at most 0.01 µg/mL.

For `CO/N=C(\C(=O)N[C@@H]1C(=O)N2C(C(=O)[O-])=C(/C=C/C[n+]3cccc4ccsc43)CS[C@H]12)c1csc(N)n1` [ex. 3, (6R,7R)-7-[[(2-amino-4-thiazolyl)-[(Z)[methoxyimino]]-acetamido]-8-oxo-3-[(E)-3-[7-[thieno[2,3-b]pyridinio]-1-propenyl]-5-thia-1-azabicyclo[4,2,0]oct-2-en-2-carboxylate (internal salt)], the MIC in [1] was 0.6 µg/mL; in the assay on Escherichia Coli 1507 E it was 0.04 µg/mL; against Escherichia Coli DC 0, 1.2 µg/mL; with Escherichia Coli DC 2 it was 0.08 µg/mL; against Escherichia Coli O 75, 0.3 µg/mL; against Escherichia Coli T E M, 0.6 µg/mL. In addition, the MIC was found to be 0.08 µg/mL with Escherichia Coli UC 1894; 0.6 µg/mL in [2]; 1.2 µg/mL in assay [3]; 0.04 µg/mL in [4]; 0.2 µg/mL in assay [5]; 1.2 µg/mL in the assay on Providencia Du 48. In addition, the MIC in [6] is 2.5 µg/mL; in [7], 0.3 µg/mL; against Serratia RG 2 532, 5 µg/mL; in assay [8] it was 2.5 µg/mL; in [9], 2.5 µg/mL; in assay [10], at most 0.01 µg/mL. In assay [11], this molecule gave an MIC of at most 0.01 µg/mL.
